# Earlier results in patent publication US20130190368A1, “NOVEL POLYMORPHS OF FEBUXOSTAT” (HETERO RESEARCH FOUNDATION, priority 2010, published 2013).
# Conditions: compared to allopurinol
smiles,measurement,value
"Cc1nc(-c2ccc(OCC(C)C)c(C#N)c2)sc1C(=O)O [febuxostat, 2-[3-cyano-4-(2-methylpropoxy)phenyl]-4-methyl-5-thiazolecarboxylic acid]",amount of initial gout flares or surface area of gout tophi,no difference
same,individuals with decreased levels of uric acid,more individuals treated with febuxostat had decreased levels of uric acid
